{"source": "patent US20250360119A1", "about": "“THIAZOLIDINEDIONES FOR THE TREATMENT OF MUSCULAR DYSTROPHIES” (The Johns Hopkins University, priority 2022, published 2025)", "origin": "cited, not measured here", "key": {"[1]": {"conditions": "clinical studies"}, "aged mice": {"tested_on": "aged mice", "conditions": "injected into the muscle directly"}}}
{"molecule": "CC1(COc2ccc(CC3SC(=O)NC3=O)cc2)CCCCC1", "note": "(stereo not shown) [ciglitazone, 5-[4-(1-methylcyclohexylmethoxy)benzyl]-thiazolidine-2,4-dione]", "values": [{"measurement": "blood glucose levels", "setting": "KKAy mice", "value": "reduce blood glucose levels without increasing insulin secretion"}, {"measurement": "peripheral insulin resistance", "setting": "KKAy mice", "value": "reduce peripheral insulin resistance"}]}
{"molecule": "CN(CCOc1ccc(CC2SC(=O)NC2=O)cc1)c1ccccn1", "note": "(stereo not shown) [rosiglitazone]", "values": [{"measurement": "cardiovascular toxicity", "setting": "[1]", "value": "no longer considered significant issues"}]}
{"molecule": "recombinant GDF3: recombinant Growth Differentiation Factor 3, a member of the TGFβ family (protein, UniProt Q9NR23 251-364, looked up) Growth/differentiation factor …: AAIPVPKLSCKNLCHRHQLFINFRDLGWHKWIIAPKGFMANYCHGECPFSLTISLNSSNYAFMQALMHAVDPEIPQAVCIPTKLSPISMLYQDNNDNVILRHYEDMVVDECGCG", "values": [{"measurement": "delay in muscle regeneration after CTX injury", "setting": "aged mice", "value": "able to alleviate some of the delay"}]}
